Data published in article PMC7026498, “GABAA Receptor β2E155 Residue Located at the Agonist-Binding Site Is Involved in the Receptor Gating” (Frontiers in Cellular Neuroscience, 2020).

Experiments:
[1] = target: T1, GABAA receptor α1β2E155Cγ2L (β2 subunit) (Rattus norvegicus, UniProt P62813+P63138, P63138:E179C); assay: whole-cell patch-clamp dose-response (extrapolated Hill fit) and single-channel recording; format: cell-based
T1 construct: gene Gabrb2; recombinant α1β2E155Cγ2L receptor in HEK293 cells; with GABAA receptor α1 and γ2L subunits

[2] = target: T2, GABAA receptor α1β2γ2L (β2 subunit) (Rattus norvegicus, UniProt P62813+P63138); assay: whole-cell patch-clamp dose-response; format: cell-based
T2 construct: gene Gabrb2; recombinant α1β2γ2L receptor in HEK293 cells; with GABAA receptor α1 and γ2L subunits
T2 sequence (P63138 26-474): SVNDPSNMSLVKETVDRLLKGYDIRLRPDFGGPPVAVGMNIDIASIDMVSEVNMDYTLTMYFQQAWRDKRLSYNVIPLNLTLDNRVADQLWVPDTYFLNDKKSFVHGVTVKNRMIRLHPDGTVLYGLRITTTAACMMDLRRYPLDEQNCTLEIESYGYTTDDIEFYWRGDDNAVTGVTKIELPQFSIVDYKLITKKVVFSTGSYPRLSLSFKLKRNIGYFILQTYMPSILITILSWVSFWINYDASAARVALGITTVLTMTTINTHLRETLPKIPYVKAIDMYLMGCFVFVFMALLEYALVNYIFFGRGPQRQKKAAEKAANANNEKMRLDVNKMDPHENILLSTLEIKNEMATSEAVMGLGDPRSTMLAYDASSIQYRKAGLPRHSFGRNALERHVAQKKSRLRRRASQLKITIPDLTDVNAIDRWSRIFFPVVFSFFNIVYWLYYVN
T2 sequence (P62813 28-455): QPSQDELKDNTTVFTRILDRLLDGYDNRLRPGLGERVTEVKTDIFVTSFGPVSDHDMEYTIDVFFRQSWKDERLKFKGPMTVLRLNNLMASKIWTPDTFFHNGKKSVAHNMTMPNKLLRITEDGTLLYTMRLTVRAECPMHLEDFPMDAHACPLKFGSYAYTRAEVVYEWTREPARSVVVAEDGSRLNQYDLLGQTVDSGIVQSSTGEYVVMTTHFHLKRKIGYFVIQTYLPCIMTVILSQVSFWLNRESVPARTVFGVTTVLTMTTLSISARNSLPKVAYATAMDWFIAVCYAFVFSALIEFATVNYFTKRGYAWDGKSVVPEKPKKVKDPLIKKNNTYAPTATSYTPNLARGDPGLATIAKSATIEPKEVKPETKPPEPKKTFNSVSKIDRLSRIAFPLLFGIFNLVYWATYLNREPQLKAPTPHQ
T2 sequence (P18508 39-466 partner): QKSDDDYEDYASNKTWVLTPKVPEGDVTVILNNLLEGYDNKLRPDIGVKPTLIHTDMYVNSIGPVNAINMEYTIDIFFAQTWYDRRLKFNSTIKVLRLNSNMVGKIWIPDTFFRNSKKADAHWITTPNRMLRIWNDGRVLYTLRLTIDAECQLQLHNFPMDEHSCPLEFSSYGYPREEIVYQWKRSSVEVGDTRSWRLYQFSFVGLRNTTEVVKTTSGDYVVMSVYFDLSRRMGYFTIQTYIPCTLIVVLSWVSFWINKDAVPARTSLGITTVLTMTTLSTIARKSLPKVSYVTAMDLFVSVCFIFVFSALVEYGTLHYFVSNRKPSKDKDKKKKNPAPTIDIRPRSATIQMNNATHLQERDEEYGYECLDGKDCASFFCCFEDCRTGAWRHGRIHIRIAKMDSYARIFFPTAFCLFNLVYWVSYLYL

T1 sequence (P63138 26-474 E179C): as the sequence (P63138 26-474) above, with E154C counted along it
T1 sequence (P62813 28-455): as the sequence (P62813 28-455) above
T1 sequence (P18508 39-466 partner): as the sequence (P18508 39-466 partner) above

Question: For NCc1cc(=O)[nH]o1 [MSC, muscimol], which EC50 [1] is on record?
Answer: 12.5 mM

Question: And the EC50 [2]?
Answer: 0.009 mM
